Test results as given in ChEMBL document CHEMBL3621085, “Tetrazole regioisomers in the development of nitro group-containing antitubercular agents” (Medchemcomm, 2015).
Values after ≈ are worked out from the molar mass of the structure shown.

Assays:
[1] = test system: Mycobacterium tuberculosis; assay: Antimycobacterial activity against Mycobacterium tuberculosis My 331/88 after 14 days by micromethod; format: functional; conditions: My 331/88, 336 h
Mycobacterium avium [2] = assay: Antimycobacterial activity against Mycobacterium avium My 330/88 after 14 days by micromethod; format: functional; conditions: My 330/88, 336 h
[3] = test system: Mycobacterium tuberculosis; assay: Antimycobacterial activity against Mycobacterium tuberculosis My 331/88 after 21 days by micromethod; format: functional; conditions: My 331/88, 504 h
Mycobacterium avium [4] = assay: Antimycobacterial activity against Mycobacterium avium My 330/88 after 21 days by micromethod; format: functional; conditions: My 330/88, 504 h
Mycobacterium kansasii [5] = assay: Antimycobacterial activity against Mycobacterium kansasii My 235/80 after 7 days by micromethod; format: functional; conditions: My 235/80, 168 h
Mycobacterium kansasii [6] = assay: Antimycobacterial activity against Mycobacterium kansasii My 235/80 after 14 days by micromethod; format: functional; conditions: My 235/80, 336 h
Mycobacterium kansasii [7] = assay: Antimycobacterial activity against Mycobacterium kansasii My 235/80 after 21 days by micromethod; format: functional; conditions: My 235/80, 504 h
Mycobacterium kansasii [8] = assay: Antimycobacterial activity against Mycobacterium kansasii 6509/96 after 7 days by micromethod; format: functional; conditions: 6509/96, 168 h
Mycobacterium kansasii [9] = assay: Antimycobacterial activity against Mycobacterium kansasii 6509/96 after 14 days by micromethod; format: functional; conditions: 6509/96, 336 h
Mycobacterium kansasii [10] = assay: Antimycobacterial activity against Mycobacterium kansasii 6509/96 after 21 days by micromethod; format: functional; conditions: 6509/96, 504 h
[11] = Cytotoxicity against CHOK1 cells assessed as viability after 24 hrs by MTT assay; format: cell-based; conditions: Cricetulus griseus, CHO-K1, 24 h

Row | SMILES | MIC [1] | MIC (Mycobacterium avium [2]) | MIC [3] | MIC (Mycobacterium avium [4]) | MIC (Mycobacterium kansasii [5]) | MIC (Mycobacterium kansasii [6]) | MIC (Mycobacterium kansasii [7]) | MIC (Mycobacterium kansasii [8]) | MIC (Mycobacterium kansasii [9]) | MIC (Mycobacterium kansasii [10]) | IC50 [11]
1 | O=[N+]([O-])c1ccc(CSc2nnn(Cc3ccc([N+](=O)[O-])cc3)n2)cc1 | 250 µM (≈ 93.1 µg/mL) | 250 µM (≈ 93.1 µg/mL) | 250 µM (≈ 93.1 µg/mL) | 250 µM (≈ 93.1 µg/mL) | 250 µM (≈ 93.1 µg/mL) | 250 µM (≈ 93.1 µg/mL) | 250 µM (≈ 93.1 µg/mL) | 250 µM (≈ 93.1 µg/mL) | 250 µM (≈ 93.1 µg/mL) | 250 µM (≈ 93.1 µg/mL) | 
2 | O=[N+]([O-])c1ccc(C[Se]c2nnnn2Cc2ccc([N+](=O)[O-])cc2)cc1 | 62 µM (≈ 26 µg/mL) | 250 µM (≈ 105 µg/mL) | 125 µM (≈ 52.4 µg/mL) | 250 µM (≈ 105 µg/mL) | 62 µM (≈ 26 µg/mL) | 125 µM (≈ 52.4 µg/mL) | 125 µM (≈ 52.4 µg/mL) | 32 µM (≈ 13.4 µg/mL) | 62 µM (≈ 26 µg/mL) | 62 µM (≈ 26 µg/mL) | 
3 | O=[N+]([O-])c1ccc(C[Se]c2nnn(Cc3ccc([N+](=O)[O-])cc3)n2)cc1 | 62 µM (≈ 26 µg/mL) | 250 µM (≈ 105 µg/mL) | 62 µM (≈ 26 µg/mL) | 250 µM (≈ 105 µg/mL) | 32 µM (≈ 13.4 µg/mL) | 125 µM (≈ 52.4 µg/mL) | 125 µM (≈ 52.4 µg/mL) | 62 µM (≈ 26 µg/mL) | 125 µM (≈ 52.4 µg/mL) | 125 µM (≈ 52.4 µg/mL) | 
4 | COc1ccc(C[Se]c2nnnn2Cc2ccc([N+](=O)[O-])cc2[N+](=O)[O-])cc1 | 4 µM (≈ 1.8 µg/mL) | 125 µM (≈ 56.2 µg/mL) | 8 µM (≈ 3.59 µg/mL) | 125 µM (≈ 56.2 µg/mL) | 16 µM (≈ 7.19 µg/mL) | 32 µM (≈ 14.4 µg/mL) | 62 µM (≈ 27.9 µg/mL) | 4 µM (≈ 1.8 µg/mL) | 16 µM (≈ 7.19 µg/mL) | 32 µM (≈ 14.4 µg/mL) | 
5 | Cn1nnnc1[Se]Cc1ccc([N+](=O)[O-])cc1[N+](=O)[O-] | 32 µM (≈ 11 µg/mL) | 250 µM (≈ 85.8 µg/mL) | 32 µM (≈ 11 µg/mL) | 250 µM (≈ 85.8 µg/mL) | 62 µM (≈ 21.3 µg/mL) | 125 µM (≈ 42.9 µg/mL) | 125 µM (≈ 42.9 µg/mL) | 62 µM (≈ 21.3 µg/mL) | 125 µM (≈ 42.9 µg/mL) | 250 µM (≈ 85.8 µg/mL) | 
6 | O=[N+]([O-])c1ccc(C[Se]c2nnn(Cc3ccccc3)n2)c([N+](=O)[O-])c1 | 16 µM (≈ 6.71 µg/mL) | 62 µM (≈ 26 µg/mL) | 16 µM (≈ 6.71 µg/mL) | 62 µM (≈ 26 µg/mL) | 16 µM (≈ 6.71 µg/mL) | 16 µM (≈ 6.71 µg/mL) | 32 µM (≈ 13.4 µg/mL) | 32 µM (≈ 13.4 µg/mL) | 32 µM (≈ 13.4 µg/mL) | 62 µM (≈ 26 µg/mL) | 22 µM
7 | O=[N+]([O-])c1ccc(Cn2nnc([Se]Cc3ccccc3)n2)c([N+](=O)[O-])c1 | 1 µM (≈ 0.419 µg/mL) | 4 µM (≈ 1.68 µg/mL) | 1 µM (≈ 0.419 µg/mL) | 8 µM (≈ 3.35 µg/mL) | 8 µM (≈ 3.35 µg/mL) | 16 µM (≈ 6.71 µg/mL) | 16 µM (≈ 6.71 µg/mL) | 8 µM (≈ 3.35 µg/mL) | 16 µM (≈ 6.71 µg/mL) | 32 µM (≈ 13.4 µg/mL) | 
8 | O=[N+]([O-])c1cc(Cn2nnnc2SCc2ccccc2)cc([N+](=O)[O-])c1 | 8 µM (≈ 2.98 µg/mL) | 125 µM (≈ 46.5 µg/mL) | 8 µM (≈ 2.98 µg/mL) | 125 µM (≈ 46.5 µg/mL) | 32 µM (≈ 11.9 µg/mL) | 62 µM (≈ 23.1 µg/mL) | 62 µM (≈ 23.1 µg/mL) | 16 µM (≈ 5.96 µg/mL) | 32 µM (≈ 11.9 µg/mL) | 32 µM (≈ 11.9 µg/mL) | 115 µM
9 | O=[N+]([O-])c1cc(Cn2nnnc2[Se]Cc2ccccc2)cc([N+](=O)[O-])c1 | 8 µM (≈ 3.35 µg/mL) | 32 µM (≈ 13.4 µg/mL) | 8 µM (≈ 3.35 µg/mL) | 32 µM (≈ 13.4 µg/mL) | 8 µM (≈ 3.35 µg/mL) | 16 µM (≈ 6.71 µg/mL) | 32 µM (≈ 13.4 µg/mL) | 16 µM (≈ 6.71 µg/mL) | 32 µM (≈ 13.4 µg/mL) | 32 µM (≈ 13.4 µg/mL) | 85 µM
10 | O=[N+]([O-])c1ccc(C[Se]c2nnnn2Cc2ccccc2)c([N+](=O)[O-])c1 | 8 µM (≈ 3.35 µg/mL) | 250 µM (≈ 105 µg/mL) | 16 µM (≈ 6.71 µg/mL) | 250 µM (≈ 105 µg/mL) | 16 µM (≈ 6.71 µg/mL) | 32 µM (≈ 13.4 µg/mL) | 125 µM (≈ 52.4 µg/mL) | 16 µM (≈ 6.71 µg/mL) | 62 µM (≈ 26 µg/mL) | 125 µM (≈ 52.4 µg/mL) | 8.5 µM
11 | Cn1nnc([Se]Cc2ccc([N+](=O)[O-])cc2[N+](=O)[O-])n1 | 16 µM (≈ 5.49 µg/mL) | 62 µM (≈ 21.3 µg/mL) | 16 µM (≈ 5.49 µg/mL) | 62 µM (≈ 21.3 µg/mL) | 32 µM (≈ 11 µg/mL) | 125 µM (≈ 42.9 µg/mL) | 125 µM (≈ 42.9 µg/mL) | 16 µM (≈ 5.49 µg/mL) | 62 µM (≈ 21.3 µg/mL) | 125 µM (≈ 42.9 µg/mL) | 
12 | Cn1nnnc1SCc1cc([N+](=O)[O-])cc([N+](=O)[O-])c1 | 4 µM (≈ 1.19 µg/mL) | 500 µM (≈ 148 µg/mL) | 8 µM (≈ 2.37 µg/mL) | 1000 µM (≈ 296 µg/mL) | 4 µM (≈ 1.19 µg/mL) | 16 µM (≈ 4.74 µg/mL) | 32 µM (≈ 9.48 µg/mL) | 16 µM (≈ 4.74 µg/mL) | 32 µM (≈ 9.48 µg/mL) | 32 µM (≈ 9.48 µg/mL) | 
13 | Cn1nnc([Se]Cc2cc([N+](=O)[O-])cc([N+](=O)[O-])c2)n1 | 1 µM (≈ 0.343 µg/mL) | 250 µM (≈ 85.8 µg/mL) | 2 µM (≈ 0.686 µg/mL) | 250 µM (≈ 85.8 µg/mL) | 2 µM (≈ 0.686 µg/mL) | 4 µM (≈ 1.37 µg/mL) | 8 µM (≈ 2.75 µg/mL) | 2 µM (≈ 0.686 µg/mL) | 4 µM (≈ 1.37 µg/mL) | 4 µM (≈ 1.37 µg/mL) | 
14 | COc1ccc(C[Se]c2nnn(Cc3cc([N+](=O)[O-])cc([N+](=O)[O-])c3)n2)cc1 | 4 µM (≈ 1.8 µg/mL) | 16 µM (≈ 7.19 µg/mL) | 8 µM (≈ 3.59 µg/mL) | 32 µM (≈ 14.4 µg/mL) | 8 µM (≈ 3.59 µg/mL) | 16 µM (≈ 7.19 µg/mL) | 16 µM (≈ 7.19 µg/mL) | 16 µM (≈ 7.19 µg/mL) | 32 µM (≈ 14.4 µg/mL) | 32 µM (≈ 14.4 µg/mL) | 
